# Test results taken from patent US20230052517A1, “ELECTROCHEMICAL SENSING METHODS AND APPARATUS FOR DETERMINING DRUG UPTAKE AND RETENTION IN CELLS” (priority 2020, published 2023).
# Where two headings read alike, the source gives them in different places.
# Tests used:
# [1] = system: Pseudomonas aeruginosa PAO750 (hyper-susceptible strain, efflux pumps deleted); assay type: cell-based; conditions: for Percentage of Tobramycin in Supernatant, PAO750: 2 mM Tobramycin, 1X PBS, 0.4% glucose, 37° C., DPV on GCE at pH 3
# Protocol: (§1) (i.e. 15 minutes; 30 minutes and 60 minutes). […] Integration underneath the curves provides the charge.
# (§2) The uptake of another antibiotic, Tobramycin (2 mM) was analyzed in Pseudomonas aeruginosa using DPV. […] As summarized in TABLE 3, the concentration of the control remains stable over different times of incubation at 37° C. […] At 15 min, the hyper-susceptible PAO750 removes about 26% of Tobramycin, which is slightly more than the wild type. […] A concentration of 2 mM Tobramycin appears to have been too high for the cells to withstand. […] As both of these strains are not resistant to Tobramycin, cell lysis at prolonged incubation times was expected.
# [2] = system: Pseudomonas aeruginosa PAO1 (wild type strain, containing efflux pumps); assay: Tobramycin uptake by DPV of the supernatant, PAO1 strain; assay type: cell-based; conditions: for Percentage of Tobramycin in Supernatant, PAO1: 2 mM Tobramycin, 1X PBS, 0.4% glucose, 37° C., DPV on GCE at pH 3
# Protocol: as §1, §2
# [3] = Control drug solution without bacterial cells incubated at 37° C., DPV; conditions: for Percentage of Tobramycin in Supernatant, Control: 2 mM Tobramycin in 1X PBS, 0.4% glucose without bacterial cells
# Protocol: DPV measurements of 1 mM Cip were taken and after incubation, centrifugation was performed at 4000 rpm for 10 min and the supernatant was collected.
# Similarly uptake of Tobramycin (2 mM), was analyzed in Pseudomonas aeruginosa also using DPV. The control solutions were tested before and after incubation at 37° C. and with different incubation times at 37° C. (i.e. 15 minutes; 30 minutes and 60 minutes). […] Integration underneath the curves provides the charge. This charge is proportional to the number of molecules transferred during DPV recordings (see FIGS. 11-14).
# [4] = system: A2780-s and A2780-cp ovarian cancer cells; assay: SECM electrochemical response of ovarian cancer cells to carboplatin (FcCH2OH regeneration); assay type: cell-based
# Protocol: Carboplatin-susceptible (A2780-s) and carboplatin-resistant (A2780-cp) ovarian cancer cells were grown in petri dishes at 37° C. until a confluence of approximately 60 to 70% was reached. Cells were exposed to a PBS solution containing 1 mM ferrocenemethanol (FcCH2OH) at 37° C. for 45 minutes. Following this incubation, the petri dish was inserted into a scanning electrochemical microscope (SECM), equipped with a camera, fluorescence unit and a heating stage. Target cells were identified using an approach curve and a horizontal line scan was carried out across the cells every 5 to 10 minutes. The solution in the petri dish was exchanged for a PBS solution containing 2 mM carboplatin and 1 mM ferrocenemethanol (FcCH2OH). Horizontal line scans were carried out every 5 to 10 minutes to record the electrochemical response by the cells.
# [5] = system: carboplatin-susceptible and carboplatin-resistant ovarian cancer cell line; assay: Voltammetric carboplatin uptake study in ovarian cancer cells; assay type: cell-based; conditions: one carboplatin-susceptible and one carboplatin-resistant cell line
# Protocol: Further work was done by the inventors^45 to evaluate the electrochemical detection of chemotherapeutic uptake by ovarian cancer cells, whereby an electrochemical characterization of carboplatin was evaluated for detection limits and pH dependence. Furthermore, bioelectrochemical studies quantified carboplatin uptake by ovarian cancer cells.
# [6] = system: Pseudomonas bacteria (PAO1 and PA262); conditions: not told
# Protocol: After 25 min of incubation, the bacteria suspension is centrifuged, cells are resuspended in PBS and drop-casted onto a 3-mm glassy carbon macroelectrode (see FIG. 1D). Other macroelectrode materials, such as gold, platinum, etc. could be employed in the same way. The electrode is then placed in a KCl solution and DPV is performed at a potential rage of zero to 1.0V. This potential range would be adjusted depending on the drug of interest.
# When the electrode is placed in the KCl solution, various time intervals were applied before driving the oxidation reaction at the electrode.
smiles,measurement,setting,value
NC[C@H]1O[C@H](O[C@H]2[C@H](O)[C@@H](O[C@H]3O[C@H](CO)[C@@H](O)[C@H](N)[C@H]3O)[C@H](N)C[C@@H]2N)[C@H](N)C[C@@H]1O [Tobramycin],"Percentage of Tobramycin in Supernatant, PAO750",[1]; 15 minutes,74%
same,"Percentage of Tobramycin in Supernatant, PAO750",[1]; 30 minutes,95%
same,"Percentage of Tobramycin in Supernatant, PAO750",[1]; 60 minutes,99%
same,Tobramycin removed by PAO750,"[1]; 2 mM, 15 min",about 26%
same,"uptake observation at prolonged incubation, PAO750","[1]; 2 mM, 30 min","the uptake is failing, probably due to cell lysis of PAO750"
same,"Percentage of Tobramycin in Supernatant, PAO1",[2]; 15 minutes,80%
same,"Percentage of Tobramycin in Supernatant, PAO1",[2]; 30 minutes,81%
same,"Percentage of Tobramycin in Supernatant, PAO1",[2]; 60 minutes,99%
same,"uptake observation at prolonged incubation, PAO1","[2]; 2 mM, 60 min",A similar effect is seen in PAO1
same,Tobramycin taken up from the solution by PAO1,"[2]; 2 mM, incubation times of 15 and 30 min",approximately 20%
same,time to establishment of equilibrium of intracellular and extracellular Tobramycin,"[2]; PAO1, 2 mM",< 15 min
same,stability of Tobramycin control solution (DPV currents before and after incubation),[3]; 2 mM,"do not vary, indicating stable 2 mM Tobramycin concentrations"
same,"Percentage of Tobramycin in Supernatant, Control",[3]; 15 minutes,99%
same,"Percentage of Tobramycin in Supernatant, Control",[3]; 30 minutes,99%
same,"Percentage of Tobramycin in Supernatant, Control",[3]; 60 minutes,95%
N.N.O=C([O-])C1(C(=O)[O-])CCC1.[Pt+2] [carboplatin],time for slope increase to relax back to its initial value,[4]; A2780-cp cells,5 to 10 min
same,change of slope (peak current vs scan velocity) after drug exposure,"[4]; A2780-cp cells, 2 mM carboplatin, 1 mM FcCH2OH",an increase in slope right after carboplatin exposure was observed
same,difference in SECM response between susceptible and resistant cells,[4]; A2780-s vs A2780-cp,A clear difference between carboplatin-susceptible and carboplatin-resistant cells
same,drug uptake detected by voltammetry,[5],demonstrated the detection of carboplatin uptake
O=C(O)c1cn(C2CC2)c2cc(N3CCNCC3)c(F)cc2c1=O [ciprofloxacin],DPV current of drop-casted bacteria after incubation with drug (export from the bacteria),[6],significant increase in current
same,dependence of export current peak on wait time,[6],a longer wait time results in a higher current peak
